Measurements from ChEMBL document CHEMBL3137667, “[Drug-induced liver injury; fourteenth updated edition of the bibliographic database of liver injuries and related drugs]” (Gastroenterol Clin Biol, 2004).

Columns and labels:
[1] = human, serum, 4383 h
[2] = human, serum
[3] = human
[4] = human; remark: listed apart in the source
[5] = human, serum; remark: listed apart in the source
[6] = human; remark: listed apart in the source
[7] = Highest frequency of moderate liver toxicity observed during clinical trials, expressed as a percentage. [column '% BIOL' in source]; conditions: human
[8] = human; remark: listed apart in the source
[9] = human; remark: listed apart in the source
[10] = human; remark: listed apart in the source
[11] = human; remark: listed apart in the source
[12] = human; remark: listed apart in the source
[13] = human; remark: listed apart in the source
[14] = Highest frequency of acute liver toxicity observed during clinical trials, expressed as a percentage. [column '% AIGUE' in source]; conditions: human
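For Hepatotoxicity (association with vascular disease) in this document: count of indexed literature references reporting vascular liver injury in humans, e.g. peliosis hepatitis, hepatic veno-occlusive disease or Budd-Chiari syndrome.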
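For Hepatotoxicity (benign tumour) in this document: value is a count of indexed literature references citing a benign tumour confirmed by histopathology.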
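For Hepatotoxicity (choleostasis) in this document: human cholestatic liver injury, shown by histopathology or by peak ALT or AST elevation over alkaline phosphatase ratio below 2, value counts indexed literature reports.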
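For Hepatotoxicity (chronic liver disease) in this document: chronic liver injury confirmed by histopathology or persistently raised serum aminotransferase activity beyond 6 months, value given as the count of indexed literature references.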
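For Hepatotoxicity (cirrhosis) in this document: value is a count of indexed literature references reporting cirrhosis confirmed by histopathology.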
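For Hepatotoxicity (cytolytic) in this document: human cytolytic liver injury, shown by histopathology or by a ratio above 5 of peak ALT or AST elevation to alkaline phosphatase elevation, value counts indexed references.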
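For Hepatotoxicity (granulomatous hepatitis) in this document: value is a count of indexed literature references reporting granulomatous liver disease confirmed by histopathology.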
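For Hepatotoxicity (malignant tumour) in this document: malignant tumour confirmed by histopathology, value gives the count of indexed literature references reporting it.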
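For Hepatotoxicity (severe hepatitis) in this document: human clinical data: severe hepatitis, meaning potentially life-threatening liver failure or clinically observed cases, the value counts how many indexed literature references report it.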
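For Hepatotoxicity (steatosis) in this document: steatosis confirmed by histopathology, value is the count of indexed references.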

SMILES	Hepatotoxicity (chronic liver disease) [1]	Hepatotoxicity (acute) [2]	Hepatotoxicity (benign tumour) [3]	Hepatotoxicity (choleostasis) [4]	Hepatotoxicity (moderate) [5]	Hepatotoxicity (association with vascular disease) [6]	Hepatotoxicity (moderate) [7] [%]	Hepatotoxicity (cytolytic) [8]	Hepatotoxicity (granulomatous hepatitis) [9]	Hepatotoxicity (steatosis) [10]	Hepatotoxicity (cirrhosis) [11]	Hepatotoxicity (malignant tumour) [12]	Hepatotoxicity (severe hepatitis) [13]	Hepatotoxicity (acute) [14] [%]
CNC1CCCN(c2c(F)cc3c(=O)c(C(=O)O)cn(C4CC4)c3c2OC)C1 (centres undefined) [BALOFLOXACIN]	0	0	0	0	23	0	28.6	0	0	0	0	0	0	0
COC(=O)C1=C(C)NC(C)=C(C(=O)O[C@H]2CCN(Cc3ccccc3)C2)[C@H]1c1cccc([N+](=O)[O-])c1 [BARNIDIPINE]	0	0	0	0	1	0	6.5	0	0	0	0	0	0	0
C[C@H]1C[C@H]2[C@@H]3CCC4=CC(=O)C=C[C@]4(C)[C@@]3(Cl)[C@@H](O)C[C@]2(C)[C@@]1(O)C(=O)CO [BECLOMETHASONE]	0	0	0	0	1	0	11.6	0	0	0	0	0	0	0
NS(=O)(=O)c1cc2c(cc1C(F)(F)F)NC(Cc1ccccc1)NS2(=O)=O (centres undefined) [BENDROFLUMETHIAZIDE]	0	1	0	0	0	0	0	0	0	0	0	0	0	0
O=C(Cn1ccnc1[N+](=O)[O-])NCc1ccccc1 [BENZNIDAZOLE]	0	1	0	0	0	0	0	0	0	0	0	0	0	0
CC#CCC(C)[C@H](O)/C=C/[C@@H]1[C@H]2c3cccc(CCCC(=O)O)c3O[C@H]2C[C@H]1O (some centres undefined) [BERAPROST]	0	0	0	0	1	0	13	0	0	0	0	0	0	0
C[C@H]1C[C@H]2[C@@H]3CCC4=CC(=O)C=C[C@]4(C)[C@@]3(F)[C@@H](O)C[C@]2(C)[C@@]1(O)C(=O)CO [BETAMETHASONE]	0	0	0	0	0	0	0	0	0	1	0	0	0	0
C[C@@H](O)[C@H]1C(=O)N2C(C(=O)[O-])=C(SC3Cn4cnc[n+]4C3)[C@H](C)[C@H]12 (some centres undefined) [BIAPENEM]	0	0	0	0	56	0	40	0	0	0	0	0	0	0
C(=N\NC1=NCCN1)/c1c2ccccc2c(/C=N/NC2=NCCN2)c2ccccc12 [BISANTRENE]	0	1	0	1	4	0	49	0	0	0	0	0	0	0
CC(C)NCC(O)COc1ccc(COCCOC(C)C)cc1 (centres undefined) [BISOPROLOL]	0	0	0	0	3	0	7.1	0	0	0	0	0	0	0
CN(Cc1cc(Br)cc(Br)c1N)C1CCCCC1 [BROMHEXINE]	0	0	0	0	1	0	0	0	0	0	0	0	0	0
